Tests used:
SNB-75 = experiment: Cytotoxicity against human SNB75 cells at 10 uM after 48 hrs by SRB assay; assay type: functional; details: SNB-75, 48 h, read-out: GI
PC-3 = experiment: Cytotoxicity against human PC3 cells at 10 uM after 48 hrs by SRB assay; assay type: functional; details: PC-3, 48 h, read-out: GI
HT-29 = experiment: Cytotoxicity against human HT-29 cells at 10 uM after 48 hrs by SRB assay; assay type: functional; details: HT-29, 48 h, read-out: GI
SW-620 = experiment: Cytotoxicity against human SW620 cells at 10 uM after 48 hrs by SRB assay; assay type: functional; details: SW-620, 48 h, read-out: GI
[1] = Cytotoxicity against human EKVX cells at 10 uM after 48 hrs by SRB assay; assay type: functional; details: read-out: GI
OVCAR-5 = experiment: Cytotoxicity against human OVCAR5 cells at 10 uM after 48 hrs by SRB assay; assay type: functional; details: OVCAR-5, 48 h, read-out: GI
BT-549 = experiment: Cytotoxicity against human BT549 cells at 10 uM after 48 hrs by SRB assay; assay type: functional; details: BT-549, 48 h, read-out: GI
RXF 393 = experiment: Cytotoxicity against human RXF393 cells at 10 uM after 48 hrs by SRB assay; assay type: functional; details: RXF 393, 48 h, read-out: GI
UACC-257 = experiment: Cytotoxicity against human UACC257 cells at 10 uM after 48 hrs by SRB assay; assay type: functional; details: UACC-257, 48 h, read-out: GI
OVCAR-8 = experiment: Cytotoxicity against human OVCAR8 cells at 10 uM after 48 hrs by SRB assay; assay type: functional; details: OVCAR-8, 48 h, read-out: GI
NCI-H322M = experiment: Cytotoxicity against human NCI-H322M cells at 10 uM after 48 hrs by SRB assay; assay type: functional; details: read-out: GI
ACHN = experiment: Cytotoxicity against human ACHN cells at 10 uM after 48 hrs by SRB assay; assay type: functional; details: read-out: GI
HCT-116 = experiment: Cytotoxicity against human HCT116 cells at 10 uM after 48 hrs by SRB assay; assay type: functional; details: HCT-116, 48 h, read-out: GI
HOP-62 = experiment: Cytotoxicity against human HOP62 cells at 10 uM after 48 hrs by SRB assay; assay type: functional; details: HOP-62, 48 h, read-out: GI
SK-OV-3 = experiment: Cytotoxicity against human SKOV3 cells at 10 uM after 48 hrs by SRB assay; assay type: functional; details: SK-OV-3, 48 h, read-out: GI
T47D = experiment: Cytotoxicity against human T47D cells at 10 uM after 48 hrs by SRB assay; assay type: functional; details: read-out: GI
UO-31 = experiment: Cytotoxicity against human UO31 cells at 10 uM after 48 hrs by SRB assay; assay type: functional; details: UO-31, 48 h, read-out: GI
NCI-H460 = experiment: Cytotoxicity against human NCI-H460 cells at 10 uM after 48 hrs by SRB assay; assay type: functional; details: NCI-H460, 48 h, read-out: GI
COLO 205 = experiment: Cytotoxicity against human COLO205 cells at 10 uM after 48 hrs by SRB assay; assay type: functional; details: COLO 205, 48 h, read-out: GI
SK-MEL-2 = experiment: Cytotoxicity against human SK-MEL-2 cells at 10 uM after 48 hrs by SRB assay; assay type: functional; details: SK-MEL-2, 48 h, read-out: GI
SF-295 = experiment: Cytotoxicity against human SF295 cells at 10 uM after 48 hrs by SRB assay; assay type: functional; details: SF-295, 48 h, read-out: GI
IGROV-1 = experiment: Cytotoxicity against human IGROV1 cells at 10 uM after 48 hrs by SRB assay; assay type: functional; details: IGROV-1, 48 h, read-out: GI
786-0 = experiment: Cytotoxicity against human 786-0 cells at 10 uM after 48 hrs by SRB assay; assay type: functional; details: 786-0, 48 h, read-out: GI
SR = experiment: Cytotoxicity against human SR cells at 10 uM after 48 hrs by SRB assay; assay type: functional; details: read-out: GI
CAKI-1 = experiment: Cytotoxicity against human Caki1 cells at 10 uM after 48 hrs by SRB assay; assay type: functional; details: CAKI-1, 48 h, read-out: GI
HCC 2998 = experiment: Cytotoxicity against human HCC2998 cells at 10 uM after 48 hrs by SRB assay; assay type: functional; details: HCC 2998, 48 h, read-out: GI
SK-MEL-5 = experiment: Cytotoxicity against human SK-MEL-5 cells at 10 uM after 48 hrs by SRB assay; assay type: functional; details: SK-MEL-5, 48 h, read-out: GI
M14 = experiment: Cytotoxicity against human M14 cells at 10 uM after 48 hrs by SRB assay; assay type: functional; details: M14, 48 h, read-out: GI
SK-MEL-28 = experiment: Cytotoxicity against human SK-MEL-28 cells at 10 uM after 48 hrs by SRB assay; assay type: functional; details: SK-MEL-28, 48 h, read-out: GI
KM12 = experiment: Cytotoxicity against human KM12 cells at 10 uM after 48 hrs by SRB assay; assay type: functional; details: KM12, 48 h, read-out: GI
RPMI-8226 = experiment: Cytotoxicity against human RPMI8226 cells at 10 uM after 48 hrs by SRB assay; assay type: functional; details: RPMI-8226, 48 h, read-out: GI
TK-10 = experiment: Cytotoxicity against human TK10 cells at 10 uM after 48 hrs by SRB assay; assay type: functional; details: TK-10, 48 h, read-out: GI
UACC-62 = experiment: Cytotoxicity against human UACC62 cells at 10 uM after 48 hrs by SRB assay; assay type: functional; details: UACC-62, 48 h, read-out: GI
HL-60(TB) = experiment: Cytotoxicity against human HL-60(TB) cells at 10 uM after 48 hrs by SRB assay; assay type: functional; details: HL-60, 48 h, read-out: GI
OVCAR-3 = experiment: Cytotoxicity against human OVCAR3 cells at 10 uM after 48 hrs by SRB assay; assay type: functional; details: OVCAR-3, 48 h, read-out: GI
Hs-578T = experiment: Cytotoxicity against human Hs578T cells at 10 uM after 48 hrs by SRB assay; assay type: functional; details: read-out: GI
MOLT-4 = experiment: Cytotoxicity against human MOLT4 cells at 10 uM after 48 hrs by SRB assay; assay type: functional; details: MOLT-4, 48 h, read-out: GI
HCT-15 = experiment: Cytotoxicity against human HCT15 cells at 10 uM after 48 hrs by SRB assay; assay type: functional; details: HCT-15, 48 h, read-out: GI
HOP-92 = experiment: Cytotoxicity against human HOP92 cells at 10 uM after 48 hrs by SRB assay; assay type: functional; details: HOP-92, 48 h, read-out: GI
NCI-H23 = experiment: Cytotoxicity against human NCI-H23 cells at 10 uM after 48 hrs by SRB assay; assay type: functional; details: NCI-H23, 48 h, read-out: GI
[2] = n-Octanol-phosphate buffer partition coefficient, log P of the compound at pH 7.4 by shake flask method; assay type: physicochemical
U-251 = experiment: Cytotoxicity against human U251 cells at 10 uM after 48 hrs by SRB assay; assay type: functional; details: U-251, 48 h, read-out: GI

## C=CCn1c(C)nc2ccc(Nc3nc(Cl)nc4ccccc34)cc21
SNB-75
  inhibition of growth at 10 µM: < 10%
PC-3
  inhibition of growth at 10 µM: 18%
HT-29
  inhibition of growth at 10 µM: < 10%
SW-620
  inhibition of growth at 10 µM: < 10%
[1]
  inhibition of growth at 10 µM: < 10%
OVCAR-5
  inhibition of growth at 10 µM: < 10%
BT-549
  inhibition of growth at 10 µM: < 10%
RXF 393
  inhibition of growth at 10 µM: 12.5%
UACC-257
  inhibition of growth at 10 µM: < 10%
OVCAR-8
  inhibition of growth at 10 µM: < 10%
NCI-H322M
  inhibition of growth at 10 µM: < 10%
ACHN
  inhibition of growth at 10 µM: < 10%
HCT-116
  inhibition of growth at 10 µM: < 10%
HOP-62
  inhibition of growth at 10 µM: < 10%
SK-OV-3
  inhibition of growth at 10 µM: < 10%
T47D
  inhibition of growth at 10 µM: 18.5%
UO-31
  inhibition of growth at 10 µM: < 10%
NCI-H460
  inhibition of growth at 10 µM: < 10%
COLO 205
  inhibition of growth at 10 µM: < 10%
SK-MEL-2
  inhibition of growth at 10 µM: < 10%
SF-295
  inhibition of growth at 10 µM: 15.2%
IGROV-1
  inhibition of growth at 10 µM: < 10%
786-0
  inhibition of growth at 10 µM: 12.2%
SR
  inhibition of growth at 10 µM: < 10%
CAKI-1
  inhibition of growth at 10 µM: 12.8%
HCC 2998
  inhibition of growth at 10 µM: < 10%
SK-MEL-5
  inhibition of growth at 10 µM: < 10%
M14
  inhibition of growth at 10 µM: < 10%
SK-MEL-28
  inhibition of growth at 10 µM: < 10%
KM12
  inhibition of growth at 10 µM: < 10%
RPMI-8226
  inhibition of growth at 10 µM: 24.7%
TK-10
  inhibition of growth at 10 µM: < 10%
UACC-62
  inhibition of growth at 10 µM: < 10%
HL-60(TB)
  inhibition of growth at 10 µM: 15.9%
OVCAR-3
  inhibition of growth at 10 µM: < 10%
Hs-578T
  inhibition of growth at 10 µM: < 10%
MOLT-4
  inhibition of growth at 10 µM: 21.3%
HCT-15
  inhibition of growth at 10 µM: < 10%
HOP-92
  inhibition of growth at 10 µM: < 10%
NCI-H23
  inhibition of growth at 10 µM: < 10%
[2]
  logD: 2.1
U-251
  inhibition of growth at 10 µM: < 10%

## C=CCn1c(C)nc2cc(Nc3nc(N4CCCC4)nc4ccccc34)ccc21
SNB-75
  inhibition of growth at 10 µM: < 10%
PC-3
  inhibition of growth at 10 µM: 18.2%
HT-29
  inhibition of growth at 10 µM: < 10%
SW-620
  inhibition of growth at 10 µM: < 10%
[1]
  inhibition of growth at 10 µM: < 10%
OVCAR-5
  inhibition of growth at 10 µM: < 10%
BT-549
  inhibition of growth at 10 µM: < 10%
RXF 393
  inhibition of growth at 10 µM: < 10%
UACC-257
  inhibition of growth at 10 µM: < 10%
OVCAR-8
  inhibition of growth at 10 µM: < 10%
NCI-H322M
  inhibition of growth at 10 µM: < 10%
ACHN
  inhibition of growth at 10 µM: < 10%
HCT-116
  inhibition of growth at 10 µM: < 10%
HOP-62
  inhibition of growth at 10 µM: < 10%
SK-OV-3
  inhibition of growth at 10 µM: < 10%
T47D
  inhibition of growth at 10 µM: 22.6%
UO-31
  inhibition of growth at 10 µM: 10.1%
NCI-H460
  inhibition of growth at 10 µM: < 10%
SK-MEL-2
  inhibition of growth at 10 µM: < 10%
SF-295
  inhibition of growth at 10 µM: < 10%
IGROV-1
  inhibition of growth at 10 µM: < 10%
786-0
  inhibition of growth at 10 µM: 11.1%
SR
  inhibition of growth at 10 µM: 11%
CAKI-1
  inhibition of growth at 10 µM: 10.2%
HCC 2998
  inhibition of growth at 10 µM: < 10%
SK-MEL-5
  inhibition of growth at 10 µM: < 10%
M14
  inhibition of growth at 10 µM: < 10%
SK-MEL-28
  inhibition of growth at 10 µM: < 10%
KM12
  inhibition of growth at 10 µM: < 10%
RPMI-8226
  inhibition of growth at 10 µM: 12.2%
TK-10
  inhibition of growth at 10 µM: < 10%
UACC-62
  inhibition of growth at 10 µM: < 10%
HL-60(TB)
  inhibition of growth at 10 µM: < 10%
OVCAR-3
  inhibition of growth at 10 µM: < 10%
Hs-578T
  inhibition of growth at 10 µM: < 10%
MOLT-4
  inhibition of growth at 10 µM: < 10%
HCT-15
  inhibition of growth at 10 µM: < 10%
HOP-92
  inhibition of growth at 10 µM: 15.5%
NCI-H23
  inhibition of growth at 10 µM: < 10%
[2]
  logD: 2.51
U-251
  inhibition of growth at 10 µM: < 10%

Reference: ChEMBL document CHEMBL2380212, “Synthesis, single crystal and antitumor activities of benzimidazole-quinazoline hybrids” (Bioorg Med Chem Lett, 2013)
